“And” between values parts separate entries of the source, which are not always exact repeats. Identical values can stand only once.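 Exposure lasted 48 hours, with cells grown in 96-well plates and compounds tested at five concentrations. GI50: concentration for 50% inhibition of growth.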 The source made the active and inactive calls. Rule as the data show it: active = GI50 up to about 1.1 µM and inactive = higher. Non-standard residues stand in square brackets, D forms with d. Residues, ends and D or L forms follow the SMILES beside them. ξ: configuration not given here. *: point of attachment. dThr(3ξ) = CC(O)[C@@H](N)C(=O)O; dNMeL = CN[C@H](CC(C)C)C(=O)O; OBn = c1ccc(CO*)cc1; ξLac = CC(O)C(=O)O
Key:
Assay in all cases: growth of human tumour cells (NCI), 48 h
SF-268 = tested on: SF-268
OVCAR-4 = tested on: OVCAR-4
MDA-MB-231 = tested on: MDA-MB-231
SN12C = tested on: SN12C
U-251 = tested on: U-251
DU-145 = tested on: DU-145
RXF 393 = tested on: RXF 393
Hs-578T = tested on: Hs-578T
MDA-N = tested on: MDA-N
NCI-H460 = tested on: NCI-H460
MCF7 = tested on: MCF7
SK-MEL-2 = tested on: SK-MEL-2
SR = tested on: SR
ACHN = tested on: ACHN
OVCAR-5 = tested on: OVCAR-5
M14 = tested on: M14
HCC 2998 = tested on: HCC 2998
MOLT-4 = tested on: MOLT-4
SK-MEL-5 = tested on: SK-MEL-5
NCI-H522 = tested on: NCI-H522

Structure (SMILES)	GI50 (SF-268)	GI50 (OVCAR-4)	GI50 (MDA-MB-231)	GI50 (SN12C)	GI50 (U-251)	GI50 (DU-145)	GI50 (RXF 393)	GI50 (Hs-578T)	GI50 (MDA-N)	GI50 (NCI-H460)	GI50 (MCF7)	GI50 (SK-MEL-2)	GI50 (SR)	GI50 (ACHN)	GI50 (OVCAR-5)	GI50 (M14)	GI50 (HCC 2998)	GI50 (MOLT-4)	GI50 (SK-MEL-5)	GI50 (NCI-H522)
CCOP(=O)(OCC)C(F)(F)CC1CCCCC1	> 10 µM (inactive)	> 10 µM (inactive)	> 10 µM (inactive)	> 10 µM (inactive)	> 10 µM (inactive)	> 10 µM (inactive)	> 10 µM (inactive)	> 10 µM (inactive)	> 10 µM (inactive)	> 10 µM (inactive)	> 10 µM (inactive)	> 10 µM (inactive)	> 10 µM (inactive)	> 10 µM (inactive)	> 10 µM (inactive)	> 10 µM (inactive)	> 10 µM (inactive)	> 10 µM (inactive)	> 10 µM (inactive)	
O=c1oc2ccc(Cl)cc2c2ccccc12	20.7 µM (inactive)	> 100 µM (inactive)	17.4 µM (inactive)	> 100 µM (inactive)	15.1 µM (inactive)	> 100 µM (inactive)	22.1 µM (inactive)	18.3 µM (inactive)	> 100 µM (inactive)	> 100 µM (inactive)	53.2 µM (inactive)	18.6 µM (inactive)	> 100 µM (inactive)	> 100 µM (inactive)	78.3 µM (inactive)	> 100 µM (inactive)	> 100 µM (inactive)	> 100 µM (inactive)	67.6 µM (inactive)	48.5 µM (inactive)
CN(C)CCS/C(=N\c1ccccc1)N1C=COC=C1	15.8 µM (inactive)	> 44.6 µM (inactive)	20.9 µM (inactive)	27.5 µM (inactive)	48 µM (inactive)	75.9 µM (inactive)	26.7 µM (inactive)	89.1 µM (inactive)	24 µM (inactive)	> 68.5 µM (inactive)	17.9 µM (inactive)	17.3 µM (inactive)	68.9 µM (inactive)	34.1 µM (inactive)	> 66.5 µM (inactive)	18 µM (inactive)	24.7 µM (inactive)	> 84.7 µM (inactive)	19.5 µM (inactive)	17.4 µM (inactive)
O=C1c2ccccc2C(=O)c2c(NCC3CO3)ccc(NCC3CO3)c21 (centres undefined)	0.254 µM (active)	10.9 µM (inactive)	3.3 µM (inactive)	0.456 µM (active)	1.65 µM (inactive)	3.58 µM (inactive)	2.21 µM (inactive)	3.72 µM (inactive)	1.3 µM (inactive)	2.39 µM (inactive)	0.112 µM (active)		0.0228 µM (active)	0.303 µM (active)	4.54 µM (inactive)	0.682 µM (active)	9.1 µM (inactive)	0.0119 µM (active)	1.68 µM (inactive)	5.24 µM (inactive)
Cc1ccc(/N=N/C(=N/c2ccccc2)c2ccc(N(CCC#N)CCC#N)cc2)cc1	40.3 µM (inactive)	42.6 µM (inactive)	22.1 µM (inactive)	31.9 µM (inactive)	15.8 µM (inactive)	36.6 µM (inactive)	22.3 µM (inactive)	37 µM (inactive)	31.6 µM (inactive)	20.1 µM (inactive)	22.1 µM (inactive)	19.7 µM (inactive)	27.9 µM (inactive)	46 µM (inactive)	54.2 µM (inactive)	33.4 µM (inactive)	19.4 µM (inactive)	43.7 µM (inactive)	22.9 µM (inactive)	17.4 µM (inactive)
C[C@@]12C=CC3C/C(=N\C(N)=S)C=C(CCCC4OCCO4)[C@]3(CC1)C2 (some centres undefined)	29.4 µM (inactive)	18.4 µM (inactive)	20.3 µM (inactive)	16.5 µM (inactive)	20.5 µM (inactive)	21 µM (inactive)	16 µM (inactive)	28.5 µM (inactive)	16 µM (inactive)	15.6 µM (inactive)	10.8 µM (inactive)	16.9 µM (inactive)	15.1 µM (inactive)	28.6 µM (inactive)	15.7 µM (inactive)	17.2 µM (inactive)	15.1 µM (inactive)	9.44 µM (inactive)	12.4 µM (inactive)	6.87 µM (inactive)
CC(C)NC(=O)OCc1c(COC(=O)NC(C)C)n(C)c2c1ccc1ccsc12	4.38 µM (inactive)	3.61 µM (inactive)	16.7 µM (inactive)	5.66 µM (inactive)	8.45 µM (inactive)	4.76 µM (inactive)	6.98 µM (inactive)	8.87 µM (inactive)	12.4 µM (inactive)	3.24 µM (inactive)	5.16 µM (inactive)	12.7 µM (inactive)	2.37 µM (inactive)	3.05 µM (inactive)	17 µM (inactive)	8.3 µM (inactive)	14.4 µM (inactive)	1.71 µM (inactive)	10.7 µM (inactive)	5.09 µM (inactive)
CC(=O)OC(C)[C@@H](NC(=O)[C@@H](CC(C)C)N(C)C(=O)[C@@H]1CCCN1C(=O)C(C)O)C(=O)OCc1ccccc1 (some centres undefined) (H-[ξLac]P[dNMeL][dThr(3ξ)](Ac)-OBn)	> 100 µM (inactive)	62.4 µM (inactive)	> 100 µM (inactive)	> 100 µM (inactive)	> 100 µM (inactive)	> 100 µM (inactive)	> 100 µM (inactive)	> 100 µM (inactive)	> 100 µM (inactive)	> 100 µM (inactive)	> 100 µM (inactive)	> 100 µM (inactive)	> 100 µM (inactive)	> 100 µM (inactive)	> 100 µM (inactive)	> 100 µM (inactive)	> 100 µM (inactive)	> 100 µM (inactive)	> 100 µM (inactive)	> 100 µM (inactive)
CC(=O)Oc1ccc2cc(Oc3cc(Cl)c(Cl)cc3Cl)c(=O)oc2c1	26.9 µM (inactive)	34.5 µM (inactive)	16.4 µM (inactive)	14.6 µM (inactive)	15.6 µM (inactive)	25.3 µM (inactive)	14.6 µM (inactive)	22.2 µM (inactive)	14.6 µM (inactive)	18.8 µM (inactive)	24.2 µM (inactive)		19.8 µM (inactive)	22.9 µM (inactive)	18.5 µM (inactive)	18.2 µM (inactive)	17.1 µM (inactive)	11.9 µM (inactive)	11.9 µM (inactive)	16.7 µM (inactive)
COc1ccc(/C=C2/N/C(=N\N=C/C(O)C(O)C(O)CO)NC2=O)cc1 (centres undefined)	57.5 µM (inactive)		91 µM (inactive)	> 100 µM (inactive)	> 100 µM (inactive) and 84.7 µM (inactive)	> 100 µM (inactive) and 71.3 µM (inactive)	> 100 µM (inactive)	78.2 µM (inactive)	72.6 µM (inactive)	> 100 µM (inactive)	15.9 µM (inactive)	> 100 µM (inactive)	> 100 µM (inactive)	> 100 µM (inactive) and 89.5 µM (inactive)	> 100 µM (inactive)	51.8 µM (inactive)	58.5 µM (inactive)	88.1 µM (inactive)		
